# Results as given in PubChem BioAssay (NCI).
#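 The compound was tested at five concentrations on cells cultured in 96-well plates, with a 48-hour exposure period. TGI marks complete inhibition of growth.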
# Columns and labels:
# Assay in all cases: growth of human tumour cells (NCI), 48 h
# DMS 273 small cell lung = system: DMS 273 small cell lung
# DLD-1 colon = system: DLD-1 colon
# SNB-19 CNS = system: SNB-19 CNS
# U251 CNS = system: U251 CNS
# CCRF-CEM leukemia = system: CCRF-CEM leukemia
# OVCAR-3 ovarian = system: OVCAR-3 ovarian
# XF 498 CNS = system: XF 498 CNS
# OVCAR-4 ovarian = system: OVCAR-4 ovarian
# LOX IMVI melanoma = system: LOX IMVI melanoma
# RPMI-8226 leukemia = system: RPMI-8226 leukemia
# HOP-62 NSCLC = system: HOP-62 NSCLC
# LXFL 529 NSCLC = system: LXFL 529 NSCLC
# SW-620 colon = system: SW-620 colon
# K-562 leukemia = system: K-562 leukemia
# NCI-H23 lung = system: NCI-H23 lung
# OVCAR-8 ovarian = system: OVCAR-8 ovarian
# SF-539 CNS = system: SF-539 CNS
# TK-10 renal = system: TK-10 renal
# RXF 393 renal = system: RXF 393 renal
# HOP-92 NSCLC = system: HOP-92 NSCLC
# NCI-H522 lung = system: NCI-H522 lung
# UACC-257 melanoma = system: UACC-257 melanoma
# CAKI-1 renal = system: CAKI-1 renal
# HCC-2998 colon = system: HCC-2998 colon
# SK-MEL-28 melanoma = system: SK-MEL-28 melanoma
# KM12 colon = system: KM12 colon
# DMS 114 small cell lung = system: DMS 114 small cell lung
# NCI-H460 lung = system: NCI-H460 lung
# MOLT-4 leukemia = system: MOLT-4 leukemia
# HT29 colon = system: HT29 colon
# HL-60(TB) leukemia = system: HL-60(TB) leukemia
# SNB-78 CNS = system: SNB-78 CNS
# SNB-75 CNS = system: SNB-75 CNS
# UACC-62 melanoma = system: UACC-62 melanoma
# COLO 205 colon = system: COLO 205 colon
# RXF-631 renal = system: RXF-631 renal
# M14 melanoma = system: M14 melanoma
# SK-MEL-5 melanoma = system: SK-MEL-5 melanoma
# A549 NSCLC = system: A549 NSCLC
# SN12C renal = system: SN12C renal
# HCT-15 colon = system: HCT-15 colon
# IGROV1 ovarian = system: IGROV1 ovarian
# EKVX NSCLC = system: EKVX NSCLC
# SK-OV-3 ovarian = system: SK-OV-3 ovarian
# OVCAR-5 ovarian = system: OVCAR-5 ovarian
# HCT-116 colon = system: HCT-116 colon
# MALME-3M melanoma = system: MALME-3M melanoma
# A498 renal = system: A498 renal
# SF-268 CNS = system: SF-268 CNS
# SF-295 CNS = system: SF-295 CNS
# UO-31 renal = system: UO-31 renal
# 786-0 renal = system: 786-0 renal
# M19-MEL melanoma = system: M19-MEL melanoma
# KM20L2 colon = system: KM20L2 colon
# HOP-18 NSCLC = system: HOP-18 NSCLC
# NCI-H226 lung = system: NCI-H226 lung
# ACHN renal = system: ACHN renal
structure (smiles),measurement,setting,value
C=C(C)C1CC2=C(O1)C(=O)c1ccccc1C2=O (configuration not stated),TGI,DMS 273 small cell lung,33.5 µM
same,TGI,DLD-1 colon,52.1 µM
same,TGI,SNB-19 CNS,96.6 µM
same,TGI,U251 CNS,30.2 µM
same,TGI,CCRF-CEM leukemia,52.7 µM
same,TGI,OVCAR-3 ovarian,34.4 µM
same,TGI,XF 498 CNS,32.2 µM
same,TGI,OVCAR-4 ovarian,24 µM
same,TGI,LOX IMVI melanoma,> 100 µM
same,TGI,RPMI-8226 leukemia,44.5 µM
same,TGI,HOP-62 NSCLC,35.2 µM
same,TGI,LXFL 529 NSCLC,31.4 µM
same,TGI,SW-620 colon,48.4 µM
same,TGI,K-562 leukemia,42.1 µM
same,TGI,NCI-H23 lung,45.1 µM
same,TGI,OVCAR-8 ovarian,35.6 µM
same,TGI,SF-539 CNS,33.7 µM
same,TGI,TK-10 renal,46.3 µM
same,TGI,RXF 393 renal,33 µM
same,TGI,HOP-92 NSCLC,30.8 µM
same,TGI,NCI-H522 lung,39.4 µM
same,TGI,UACC-257 melanoma,26.2 µM
same,TGI,CAKI-1 renal,31.7 µM
same,TGI,HCC-2998 colon,39.3 µM
same,TGI,SK-MEL-28 melanoma,34.2 µM
same,TGI,KM12 colon,33.4 µM
same,TGI,DMS 114 small cell lung,32.9 µM
same,TGI,NCI-H460 lung,33.8 µM
same,TGI,MOLT-4 leukemia,32.8 µM
same,TGI,HT29 colon,38.4 µM
same,TGI,HL-60(TB) leukemia,15 µM
same,TGI,SNB-78 CNS,39.9 µM
same,TGI,SNB-75 CNS,31.8 µM
same,TGI,UACC-62 melanoma,30.4 µM
same,TGI,COLO 205 colon,37.4 µM
same,TGI,RXF-631 renal,40.3 µM
same,TGI,M14 melanoma,33.1 µM
same,TGI,SK-MEL-5 melanoma,28.1 µM
same,TGI,A549 NSCLC,42.3 µM
same,TGI,SN12C renal,43.5 µM
same,TGI,HCT-15 colon,33.2 µM
same,TGI,IGROV1 ovarian,36.1 µM
same,TGI,EKVX NSCLC,60.3 µM
same,TGI,SK-OV-3 ovarian,> 100 µM
COc1cc2c(cc1O)[C@H](C)C(c1ccccc1OC)O2 (some centres not stated),TGI,OVCAR-5 ovarian,> 100 µM
same,TGI,DMS 273 small cell lung,> 100 µM
same,TGI,HCT-116 colon,15.4 µM
same,TGI,DLD-1 colon,> 100 µM
same,TGI,SNB-19 CNS,> 100 µM
same,TGI,U251 CNS,8.01 µM
same,TGI,MALME-3M melanoma,> 100 µM
same,TGI,A498 renal,56 µM
same,TGI,CCRF-CEM leukemia,30.6 µM
same,TGI,OVCAR-3 ovarian,> 100 µM
same,TGI,XF 498 CNS,24 µM
same,TGI,OVCAR-4 ovarian,60.2 µM
same,TGI,LOX IMVI melanoma,26.7 µM
same,TGI,RPMI-8226 leukemia,13.9 µM
same,TGI,LXFL 529 NSCLC,27.1 µM
same,TGI,SW-620 colon,12.2 µM
same,TGI,SF-268 CNS,> 100 µM
same,TGI,K-562 leukemia,> 100 µM
same,TGI,SF-295 CNS,22.9 µM
same,TGI,NCI-H23 lung,> 100 µM
same,TGI,OVCAR-8 ovarian,57.8 µM
same,TGI,SF-539 CNS,41.5 µM
same,TGI,TK-10 renal,> 100 µM
same,TGI,RXF 393 renal,93.6 µM
same,TGI,HOP-92 NSCLC,62.8 µM
same,TGI,NCI-H522 lung,9.25 µM
same,TGI,UO-31 renal,70.2 µM
same,TGI,UACC-257 melanoma,> 100 µM
same,TGI,CAKI-1 renal,69.2 µM
same,TGI,HCC-2998 colon,90 µM
same,TGI,SK-MEL-28 melanoma,> 100 µM
same,TGI,786-0 renal,50.5 µM
same,TGI,KM12 colon,> 100 µM
same,TGI,DMS 114 small cell lung,11 µM
same,TGI,NCI-H460 lung,4.2 µM
same,TGI,M19-MEL melanoma,> 100 µM
same,TGI,HT29 colon,61.3 µM
same,TGI,HL-60(TB) leukemia,7.5 µM
same,TGI,KM20L2 colon,24.4 µM
same,TGI,SNB-78 CNS,> 100 µM
same,TGI,HOP-18 NSCLC,> 100 µM
same,TGI,SNB-75 CNS,6.48 µM
same,TGI,UACC-62 melanoma,> 100 µM
same,TGI,COLO 205 colon,27 µM
same,TGI,NCI-H226 lung,72.3 µM
same,TGI,M14 melanoma,> 100 µM
same,TGI,SK-MEL-5 melanoma,19.7 µM
same,TGI,A549 NSCLC,> 100 µM
same,TGI,ACHN renal,23.9 µM
same,TGI,HCT-15 colon,12.1 µM
same,TGI,IGROV1 ovarian,> 100 µM
same,TGI,EKVX NSCLC,> 100 µM
same,TGI,SK-OV-3 ovarian,> 100 µM
